From ChEMBL document CHEMBL1134497, “Soluble 2-substituted aminopyrido[2,3-d]pyrimidin-7-yl ureas. Structure-activity relationships against selected tyrosine kinases and exploration of in vitro and in vivo anticancer activity” (J Med Chem, 2001) come the findings set out here.

Each structure is given as a SMILES string. pIC50: −log10 of the molar value.

Test [1] relates to HT-29. The experiment in a line: Inhibition of human colon carcinoma HT-29 cell proliferation. The format is functional, cell-based.
Test [2] has as its system SW-620. Nature of the test: Inhibition of human colon carcinoma SW-620 cell proliferation. The format is functional, cell-based.
The target in test [3] is Proto-oncogene tyrosine-protein kinase Src (Gallus gallus, UniProt P00523). The experiment in a line: Ability to prevent phosphorylation of avian c-Src TK.
For test [4], the system named is HCT-8. Nature of the test: Inhibition of human colon carcinoma HCT-8 cell proliferation. It is filed as functional, cell-based.
For test [5], the system named is C6. Nature of the test: Inhibition of C-6 rat glioma cell proliferation. It is filed as functional, cell-based.
Test [6] addresses T1, Platelet-derived growth factor receptor (PDGFr) (Rattus norvegicus, UniProt P20786+Q05030). Nature of the test: (§1) Inhibition of PDGF receptor autophosphorylation in rat aortic vascular smooth muscle cells. It is filed as functional.
For test [7], the target named is T1, Platelet-derived growth factor receptor (PDGFr). The test is described as §1.
In test [8] the target is Cyclin-dependent kinase 4 (Homo sapiens, UniProt P11802). The experiment in a line: Inhibition of cyclin dependent kinase 4 (CDK4).
In test [9] the target is Protein kinase C (PKC). Nature of the test: Inhibition of protein kinase C. The format is protein assay.
Test [10] relates to NIH3T3. The experiment in a line: Inhibition of NIH3T3/PDGF Mouse transfected fibroblasts cell line. It is filed as functional, cell-based.
The nature of test [11]: Inhibition of MEK1/ERK (MAP kinase kinase) in cascade assay.
Test [12] in a line: Inhibition of MEK1/ERK (MAP Kinase kinase) in cascade assay.
For test [13], the target named is Insulin receptor (Homo sapiens, UniProt P06213). Nature of the test: Inhibition of insulin receptor kinase.
The target in test [14] is Fibroblast growth factor receptor 1 (Homo sapiens, UniProt P11362).
Description: Ability to prevent phosphorylation of human fibroblast growth factor receptor 1
The target of test [15] is Platelet-derived growth factor receptor beta (Mus musculus, UniProt P05622). The experiment in a line: Ability to prevent phosphorylation of isolated mouse PDGF receptor beta.

As usually defined, the pIC50 is −log10 of the IC50, conventionally taken in molar units. A word on the IC50: it is the point on the concentration scale where inhibition reaches its midpoint.

Chain of Cyclin-dependent kinase 4 (P11802 whole entry): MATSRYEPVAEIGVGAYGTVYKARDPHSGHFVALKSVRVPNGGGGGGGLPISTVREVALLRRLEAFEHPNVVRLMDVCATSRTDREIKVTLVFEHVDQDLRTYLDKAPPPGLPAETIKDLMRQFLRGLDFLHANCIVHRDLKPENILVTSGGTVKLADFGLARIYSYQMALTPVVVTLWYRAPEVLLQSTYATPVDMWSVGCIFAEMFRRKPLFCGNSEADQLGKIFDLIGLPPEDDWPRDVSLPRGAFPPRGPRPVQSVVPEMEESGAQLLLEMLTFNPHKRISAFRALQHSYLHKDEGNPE
Chain of Platelet-derived growth factor receptor beta (P05622 whole entry): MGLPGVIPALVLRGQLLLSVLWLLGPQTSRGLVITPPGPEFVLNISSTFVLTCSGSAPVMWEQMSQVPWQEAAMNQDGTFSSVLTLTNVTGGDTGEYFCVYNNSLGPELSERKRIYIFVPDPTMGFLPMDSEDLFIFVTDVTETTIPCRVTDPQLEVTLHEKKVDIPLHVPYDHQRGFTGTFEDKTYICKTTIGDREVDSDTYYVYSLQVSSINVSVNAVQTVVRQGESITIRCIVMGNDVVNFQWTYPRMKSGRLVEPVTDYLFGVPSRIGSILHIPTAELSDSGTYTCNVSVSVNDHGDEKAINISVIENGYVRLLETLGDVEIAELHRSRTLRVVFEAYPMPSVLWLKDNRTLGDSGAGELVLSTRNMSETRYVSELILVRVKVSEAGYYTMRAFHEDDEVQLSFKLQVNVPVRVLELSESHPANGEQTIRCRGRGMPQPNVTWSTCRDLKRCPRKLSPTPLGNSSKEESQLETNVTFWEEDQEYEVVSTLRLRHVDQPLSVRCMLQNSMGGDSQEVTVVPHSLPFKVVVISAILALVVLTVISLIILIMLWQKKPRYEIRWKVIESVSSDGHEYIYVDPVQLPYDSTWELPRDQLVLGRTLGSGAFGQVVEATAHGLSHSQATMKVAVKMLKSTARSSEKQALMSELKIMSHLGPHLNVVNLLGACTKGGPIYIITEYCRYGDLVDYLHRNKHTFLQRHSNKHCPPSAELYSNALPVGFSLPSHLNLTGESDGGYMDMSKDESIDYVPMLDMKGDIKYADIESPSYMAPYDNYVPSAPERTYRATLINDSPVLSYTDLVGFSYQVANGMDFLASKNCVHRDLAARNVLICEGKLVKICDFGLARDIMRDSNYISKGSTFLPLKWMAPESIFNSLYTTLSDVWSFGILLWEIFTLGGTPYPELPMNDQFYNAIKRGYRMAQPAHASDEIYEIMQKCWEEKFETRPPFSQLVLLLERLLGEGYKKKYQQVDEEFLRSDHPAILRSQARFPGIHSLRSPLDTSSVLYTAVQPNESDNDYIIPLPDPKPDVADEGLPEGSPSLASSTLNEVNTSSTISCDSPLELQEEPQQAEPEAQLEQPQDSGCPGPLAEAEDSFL
Chain of Fibroblast growth factor receptor 1 (P11362 whole entry): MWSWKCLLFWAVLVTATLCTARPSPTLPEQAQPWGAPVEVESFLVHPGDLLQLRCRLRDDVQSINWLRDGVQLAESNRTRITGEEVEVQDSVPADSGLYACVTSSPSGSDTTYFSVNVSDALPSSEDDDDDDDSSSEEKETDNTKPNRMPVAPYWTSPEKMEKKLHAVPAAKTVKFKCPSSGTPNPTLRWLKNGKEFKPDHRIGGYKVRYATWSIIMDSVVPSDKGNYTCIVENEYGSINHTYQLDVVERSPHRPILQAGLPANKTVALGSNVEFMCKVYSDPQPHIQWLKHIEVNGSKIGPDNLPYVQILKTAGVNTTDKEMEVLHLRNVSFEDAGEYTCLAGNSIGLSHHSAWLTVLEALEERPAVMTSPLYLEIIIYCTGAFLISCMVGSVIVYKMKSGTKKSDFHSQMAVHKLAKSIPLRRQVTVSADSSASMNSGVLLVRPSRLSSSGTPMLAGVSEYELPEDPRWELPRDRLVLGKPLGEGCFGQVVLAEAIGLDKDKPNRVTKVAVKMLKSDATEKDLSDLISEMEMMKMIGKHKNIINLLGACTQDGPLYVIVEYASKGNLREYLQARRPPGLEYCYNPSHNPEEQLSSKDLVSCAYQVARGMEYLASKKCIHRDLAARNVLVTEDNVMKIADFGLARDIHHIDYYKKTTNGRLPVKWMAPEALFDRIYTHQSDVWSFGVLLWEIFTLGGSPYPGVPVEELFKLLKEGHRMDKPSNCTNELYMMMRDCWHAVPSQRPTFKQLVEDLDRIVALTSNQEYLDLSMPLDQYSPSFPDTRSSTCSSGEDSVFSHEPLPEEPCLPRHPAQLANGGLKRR
Chain of Insulin receptor (P06213 28-758 limits assumed): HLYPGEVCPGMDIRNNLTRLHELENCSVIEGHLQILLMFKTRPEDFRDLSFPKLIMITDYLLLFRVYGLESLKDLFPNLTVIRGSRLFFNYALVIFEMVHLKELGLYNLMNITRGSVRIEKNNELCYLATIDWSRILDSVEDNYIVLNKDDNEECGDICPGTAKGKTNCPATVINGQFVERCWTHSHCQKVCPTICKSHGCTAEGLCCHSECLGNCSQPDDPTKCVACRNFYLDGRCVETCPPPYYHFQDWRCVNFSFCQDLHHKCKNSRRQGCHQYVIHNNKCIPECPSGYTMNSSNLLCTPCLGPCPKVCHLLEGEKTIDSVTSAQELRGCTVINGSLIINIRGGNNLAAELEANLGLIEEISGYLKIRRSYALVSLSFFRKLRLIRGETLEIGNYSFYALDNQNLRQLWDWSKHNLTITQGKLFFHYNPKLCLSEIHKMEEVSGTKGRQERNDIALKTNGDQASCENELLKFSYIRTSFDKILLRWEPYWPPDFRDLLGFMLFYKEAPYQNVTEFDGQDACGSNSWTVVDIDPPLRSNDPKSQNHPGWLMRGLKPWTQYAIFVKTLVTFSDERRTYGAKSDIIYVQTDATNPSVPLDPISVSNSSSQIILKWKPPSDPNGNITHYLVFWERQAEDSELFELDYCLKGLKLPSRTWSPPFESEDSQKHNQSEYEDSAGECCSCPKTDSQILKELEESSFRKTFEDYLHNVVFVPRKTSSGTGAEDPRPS
Chain of Insulin receptor (P06213 763-1382 limits assumed): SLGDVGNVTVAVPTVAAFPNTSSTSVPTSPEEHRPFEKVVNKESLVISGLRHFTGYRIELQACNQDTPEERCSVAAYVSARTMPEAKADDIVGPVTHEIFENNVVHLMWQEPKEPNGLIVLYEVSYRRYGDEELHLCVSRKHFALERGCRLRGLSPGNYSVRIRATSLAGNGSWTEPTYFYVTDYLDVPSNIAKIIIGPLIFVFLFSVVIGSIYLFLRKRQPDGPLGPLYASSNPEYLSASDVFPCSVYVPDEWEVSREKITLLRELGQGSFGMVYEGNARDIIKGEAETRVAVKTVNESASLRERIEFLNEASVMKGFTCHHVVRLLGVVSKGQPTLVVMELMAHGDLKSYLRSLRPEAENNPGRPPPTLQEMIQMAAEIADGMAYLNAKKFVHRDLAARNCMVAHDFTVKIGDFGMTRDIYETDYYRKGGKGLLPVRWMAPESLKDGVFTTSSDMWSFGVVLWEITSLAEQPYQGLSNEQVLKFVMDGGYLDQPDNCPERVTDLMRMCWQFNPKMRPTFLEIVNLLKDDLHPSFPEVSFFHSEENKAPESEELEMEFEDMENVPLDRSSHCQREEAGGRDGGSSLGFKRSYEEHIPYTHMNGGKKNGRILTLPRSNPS

For the compound `CCNC(=O)Nc1nc2nc(NCCCN3CCN(C)CC3)ncc2cc1-c1c(Cl)cccc1Cl`, the pIC50 in test [1] is 6.05; in test [2] it was 5.60; in [3], 7.62; in test [4], 5.03; in test [5] it was 5.17.
As to `CN1CCN(CCCNc2ncc3cc(-c4c(Cl)cccc4Cl)c(NC(=O)Nc4ccccc4)nc3n2)CC1`, the pIC50 is 5.82 in test [1]; 5.39 in test [2]; 7.82 in [3]; 5.40 in [4]; 5.17 in test [5]. In test [6], this compound came in with an IC50 of 0.37 µM.
For the compound `CCNC(=O)Nc1nc2nc(NCCCCN(CC)CC)ncc2cc1-c1c(Cl)cccc1Cl`, the IC50 is 0.24 µM in test [7] and > 50 µM in test [9]. In addition, the pIC50 is 5.93 in test [1]; 5.56 in [2]; < 4.40 in [8]; 5.40 in [4]; 6.00 in [10]; 5.06 in [5]. Moreover, the pIC50 in test [11] is < 5.30.
On to `CN1CCN(CCCNc2ncc3cc(-c4c(Cl)cccc4Cl)c(NC(=O)NC(C)(C)C)nc3n2)CC1`, for which the negative-log IC50 (pIC50) in [12] is 5.15; in [1] it was 4.95; in test [2], < 4.60; in test [8], < 4.40; in test [4] it was < 4.82; in [10], 5.97. Further, the pIC50 in test [5] was 5.40. Moreover, the IC50 in test [9] came out at 22 µM.
Turning to `CCN(CC)CCCCNc1ncc2cc(-c3c(Cl)cccc3Cl)c(NC(=O)NC(C)(C)C)nc2n1`, the pIC50 was 5.55 in test [12]; 6.05 in [1]; < 4.60 in test [2]; < 4.40 in test [8]; 8.13 in test [3]; 4.79 in test [4]. In [5], this compound had a negative logarithm of the IC50 (pIC50) of 5.24. For the same compound, the IC50 in test [9] is 23 µM.
Turning to `CCN(CC)CCCCNc1ncc2cc(-c3c(Cl)cccc3Cl)c(NC(=O)Nc3ccccc3)nc2n1`, the pIC50 in test [13] is < 4.30; in test [12], 5.30; in [1], 6.10; in test [2], 5.59; in [8], < 4.40; in test [3] it was 8.12. Besides, the pIC50 was 5.49 in test [4] and 5.09 in test [5]. For the same compound, the figures for the IC50 in test [7] and in test [9] were 1.2 µM and > 50 µM, respectively.
For `CN1CCN(CCCNc2ncc3cc(-c4c(Cl)cccc4Cl)c(NC(=O)Cc4ccccc4)nc3n2)CC1`, the pIC50 in test [14] was 5.17; in [3], 5.48; in test [15] it was < 4.30.
